Data: BigSolDB 2.1

COc1cc2nccc(Oc3ccc(NC(=O)C4(C(=O)Nc5ccc(F)cc5)CC4)cc3)c2cc1OC.O=C(O)C[C@H](O)C(=O)O
solubility (mole fraction)
Conditions	298.2 K	303.2 K	308.2 K	313.2 K	318.2 K
in DMSO	0.0332	0.0353	0.0376	0.0404	0.0435
in ethanol	0.000391	0.000507	0.000724	0.000977	0.00127
in ethyl acetate	8.8e-05	0.000135	0.000187	0.000277	0.000415
in ethylene glycol	0.000426	0.000605	0.000839	0.00109	0.00138
in isopropanol	0.000529	0.00068	0.000944	0.0013	0.00169
in methanol	0.000169	0.000262	0.000372	0.000503	0.000705
in n-butanol	0.000675	0.000932	0.00128	0.00166	0.00215
in propylene glycol	0.000715	0.00098	0.00131	0.00179	0.00238
in sec-butanol	0.000687	0.000943	0.00135	0.00173	0.00221
in transcutol	0.00179	0.00231	0.00315	0.0042	0.00545
in water	2.27e-07	3.4e-07	4.82e-07	6.52e-07	8.5e-07

Conditions	solubility (mole fraction)
in PEG-400, 298.2 K	0.00354
in PEG-400, 303.2 K	0.00538
in PEG-400, 308.2 K	0.00749
in PEG-400, 313.2 K	0.0105
in PEG-400, 318.2 K	0.0142
